Results reported in patent publication US8703104B2, “Use of metal astringents for the treatment of hairy heel warts” (Ecolab USA Inc, priority 2007, dated 2014).
Where two headings read alike, the source gives them in different places.

System: hairy heel wart lesions on the cows
[1] = Day 0, prior to first treatment
[2] = Grading Period 1 (Day 0), one day prior to first treatment

O=S(=O)([O-])[O-].[Cu+2] [CuSO4, copper sulfate]
Lesion Appearance Score Distribution: number of cows with Grade Score 4 (Dead lesion) [1]: 1 | Lesion Pain Score Distribution: number of cows with Grade Score 1 (Minor pain) [1]: 10 | Lesion Size Score Distribution: number of cows with Grade Score 1 (Dime Size) [1]: 6 | Lesion Size Score Distribution: number of cows with Grade Score 2 (Quarter Size) [1]: 5 | Locomotion Score Distribution: number of cows with Grade Score 1 (Stands and walks normal) [1]: 5 | Lesion Appearance Score Distribution: number of cows with Grade Score 4 (Dead lesion) (Day 5): 5 | Lesion Pain Score Distribution: number of cows with Grade Score 1 (Minor pain) (Day 5): 6 | Lesion Size Score Distribution: number of cows with Grade Score 1 (Dime Size) (Day 5): 4 | Lesion Size Score Distribution: number of cows with Grade Score 2 (Quarter Size) (Day 5): 4 | Locomotion Score Distribution: number of cows with Grade Score 1 (Stands and walks normal) (Day 5): 3 | Lesion Appearance Score Distribution: number of cows with Grade Score 4 (Dead lesion) (Day 10): 6 | Lesion Pain Score Distribution: number of cows with Grade Score 1 (Minor pain) (Day 10): 9 | Lesion Size Score Distribution: number of cows with Grade Score 1 (Dime Size) (Day 10): 10 | Lesion Size Score Distribution: number of cows with Grade Score 2 (Quarter Size) (Day 10): 1 | Locomotion Score Distribution: number of cows with Grade Score 1 (Stands and walks normal) (Day 10): 3 | Lesion Appearance Score Distribution: number of cows with Grade Score 4 (Dead lesion) (Day 14): 5 | Lesion Pain Score Distribution: number of cows with Grade Score 1 (Minor pain) (Day 14): 5 | Lesion Size Score Distribution: number of cows with Grade Score 1 (Dime Size) (Day 14): 4 | Lesion Size Score Distribution: number of cows with Grade Score 2 (Quarter Size) (Day 14): 6 | Locomotion Score Distribution: number of cows with Grade Score 1 (Stands and walks normal) (Day 14): 8 | Lesion Appearance Score Distribution: number of cows with Grade Score 4 (Dead lesion) (Day 19): 3 | Lesion Pain Score Distribution: number of cows with Grade Score 1 (Minor pain) (Day 19): 5 | Lesion Size Score Distribution: number of cows with Grade Score 1 (Dime Size) (Day 19): 8 | Lesion Size Score Distribution: number of cows with Grade Score 2 (Quarter Size) (Day 19): 3 | Locomotion Score Distribution: number of cows with Grade Score 1 (Stands and walks normal) (Day 19): 8 | Average lesion color score (scale 0 to 5) [2]: 1.64 | Average lesion pain score (scale 0 to 2) [2]: 1.09 | Average locomotion score (scale 1-5) [2]: 1.82 | Average lesion color score (scale 0 to 5) (Grading Period 2 (Day 5)): 2.20 | Average lesion pain score (scale 0 to 2) (Grading Period 2 (Day 5)): 0.60 | Average lesion size score (scale 0 to 3) (Grading Period 2 (Day 5)): 1.80 | Average locomotion score (scale 1-5) (Grading Period 2 (Day 5)): 1.90 | Average lesion color score (scale 0 to 5) (Grading Period 3 (Day 10)): 2.45 | Average lesion pain score (scale 0 to 2) (Grading Period 3 (Day 10)): 1.00 | Average lesion size score (scale 0 to 3) (Grading Period 3 (Day 10)): 1.09 | Average locomotion score (scale 1-5) (Grading Period 3 (Day 10)): 1.82 | Average lesion color score (scale 0 to 5) (Grading Period 4 (Day 14)): 3.10 | Average lesion pain score (scale 0 to 2) (Grading Period 4 (Day 14)): 0.50 | Average lesion size score (scale 0 to 3) (Grading Period 4 (Day 14)): 1.60 | Average locomotion score (scale 1-5) (Grading Period 4 (Day 14)): 1.20 | Average lesion pain score (scale 0 to 2) (Grading Period 5 (Day 19)): 0.45 | Average lesion size score (scale 0 to 3) (Grading Period 5 (Day 19)): 1.27 | Average locomotion score (scale 1-5) (Grading Period 5 (Day 19)): 1.55
